The values below come from patent publication US8901308B2, “Triazole compounds that modulate Hsp90 activity” (Synta Pharmaceuticals Corp., priority 2004, dated 2014).

The structures appear in SMILES notation.

Data set [1] has as its system human tumor cell line MDA-MB-435S. In words: MDA-MB-435S nude mouse xenograft model. Particulars: 300 mg/kg body weight IP, 5 times per week for 3 weeks. It counts as in vivo. How it is done:
FBS was obtained from Sigma-Aldrich Corp. (St. Louis, Mo., USA), and all other reagents were obtained from Invitrogen Corp. (Carlsbad, Calif., USA). Approximately 4−5×10(6) cells that had been cryopreserved in liquid nitrogen were rapidly thawed at 37° C. and transferred to a 175 cm^2 tissue culture flask containing 50 ml of growth media and then incubated at 37° C. in a 5% CO2 incubator. The growth media was replaced every 2-3 days until the flask became 90% confluent, typically in 5-7 days. To passage and expand the cell line, a 90% confluent flask was washed with 10 ml of room temperature phosphate buffered saline (PBS) and the cells were disassociated by adding 5 ml 1× Trypsin-EDTA (Invitrogen) and incubating at 37° C. until the cells detached from the surface of the flask. To inactivate the trypsin, 5 ml of growth media was added and then the contents of the flask were centrifuged to pellet the cells. The supernatant was aspirated and the cell pellet was resuspended in 10 ml of growth media and the cell number determined using a hemocytometer. […]
Six to eight week old, female Crl:CD-1-nuBR (nude) mice were obtained from Charles River Laboratories (Wilmington, Mass., USA). […] Tumor volumes (V) were calculated by caliper measurement of the width (W), length (L) and thickness (T) of tumors using the following formula: V=[…]×(L×W×T). […]

Data set [2] deals with Her2, an Hsp90 client protein. Briefly: Degradation of Her2 in BT-474 cells (Western blot). Format: cell-based, Human. Particulars: overnight. On the procedure:
Human high-Her2 breast carcinoma BT474 (HTB-20), SK-BR-3 (HTB-30) and MCF-7 breast carcinoma (HTB-22) from American Type Culture Collection, VA, USA were grown in Dulbecco's modified Eagle's medium with 4 mM L-glutamine and antibiotics (100 IU/ml penicillin and 100 ug/ml streptomycine; GibcoBRL). To obtain exponential cell growth, cells were trypsinized, counted and seeded at a cell density of 0.5×10^6 cells/ml regularly, every 3 days. All experiments were performed on day 1 after cell passage.
After treatment, each cytoplasmic sample was prepared from 1×10^6 cells by incubation of cell lysis buffer (#9803, cell Signaling Technology) on ice for 10 minutes. The resulting supernatant used as the cytosol fractions were dissolved with sample buffer for SDS-PAGE and run on a SDS-PAGE gel, blotted onto a nitrocellulose membrane by using semi-dry transfer. Non-specific binding to nitrocellulose was blocked with 5% skim milk in TBS with 0.5% Tween at room temperature for 1 hour, then probed with anti-Her2/ErB2 mAb (rabbit IgG, #2242, Cell Signaling) and anti-Tubulin (T9026, Sigma) as housekeeping control protein. HRP-conjugated goat anti-rabbit IgG (H+L) and HRP-conjugated horse anti-mouse IgG (H+L) were used as secondary Ab (#7074, #7076, Cell Signaling) and LumiGLO reagent, 20× Peroxide (#7003, Cell Signaling) was used for visualization.
For orientation: In western blotting, separated proteins are transferred to a membrane and probed.

On to `CCc1cc(-c2nnc(S)n2-c2cccc3ccccc23)c(O)cc1O` [Compound 49, 3-(2,4-Dihydroxy-5-ethyl-phenyl)-4-(naphthalen-1-yl)-5-mercapto-[1,2,4] triazole], for which, in data set [1], the “Toxicity (effect on body weights)” value is “not associated with significant toxicity”. The “Growth rate of MDA-MB-435S tumors” value in data set [1] (compared with 100 mg/kg 17-AAG) was “decreased the growth rate”. Moreover, the “Degradation of Her2” value in data set [2] (0.5 μM) was “partial degradated”; in data set [2] (2 μM), “complete degradation”; in data set [2] (5 μM), “complete degradation”.
